Source: US11318137B2, “Quinazoline compounds as modulators of Ras signaling” (VANDERBILT UNIVERSITY, priority 2017, dated 2022)

What was measured:
[1] = molecular target: T1, SOS-mediated nucleotide exchange on Ras (Homo sapiens, UniProt Q07889); test: SOS-mediated nucleotide exchange on Ras (BODIPY-GDP fluorescence); format: biochemical; details: Ras loaded with BODIPY-GDP, GTP and SOS added; EC50 from derived exchange rates
T1 sequence (Q07889 1-1333): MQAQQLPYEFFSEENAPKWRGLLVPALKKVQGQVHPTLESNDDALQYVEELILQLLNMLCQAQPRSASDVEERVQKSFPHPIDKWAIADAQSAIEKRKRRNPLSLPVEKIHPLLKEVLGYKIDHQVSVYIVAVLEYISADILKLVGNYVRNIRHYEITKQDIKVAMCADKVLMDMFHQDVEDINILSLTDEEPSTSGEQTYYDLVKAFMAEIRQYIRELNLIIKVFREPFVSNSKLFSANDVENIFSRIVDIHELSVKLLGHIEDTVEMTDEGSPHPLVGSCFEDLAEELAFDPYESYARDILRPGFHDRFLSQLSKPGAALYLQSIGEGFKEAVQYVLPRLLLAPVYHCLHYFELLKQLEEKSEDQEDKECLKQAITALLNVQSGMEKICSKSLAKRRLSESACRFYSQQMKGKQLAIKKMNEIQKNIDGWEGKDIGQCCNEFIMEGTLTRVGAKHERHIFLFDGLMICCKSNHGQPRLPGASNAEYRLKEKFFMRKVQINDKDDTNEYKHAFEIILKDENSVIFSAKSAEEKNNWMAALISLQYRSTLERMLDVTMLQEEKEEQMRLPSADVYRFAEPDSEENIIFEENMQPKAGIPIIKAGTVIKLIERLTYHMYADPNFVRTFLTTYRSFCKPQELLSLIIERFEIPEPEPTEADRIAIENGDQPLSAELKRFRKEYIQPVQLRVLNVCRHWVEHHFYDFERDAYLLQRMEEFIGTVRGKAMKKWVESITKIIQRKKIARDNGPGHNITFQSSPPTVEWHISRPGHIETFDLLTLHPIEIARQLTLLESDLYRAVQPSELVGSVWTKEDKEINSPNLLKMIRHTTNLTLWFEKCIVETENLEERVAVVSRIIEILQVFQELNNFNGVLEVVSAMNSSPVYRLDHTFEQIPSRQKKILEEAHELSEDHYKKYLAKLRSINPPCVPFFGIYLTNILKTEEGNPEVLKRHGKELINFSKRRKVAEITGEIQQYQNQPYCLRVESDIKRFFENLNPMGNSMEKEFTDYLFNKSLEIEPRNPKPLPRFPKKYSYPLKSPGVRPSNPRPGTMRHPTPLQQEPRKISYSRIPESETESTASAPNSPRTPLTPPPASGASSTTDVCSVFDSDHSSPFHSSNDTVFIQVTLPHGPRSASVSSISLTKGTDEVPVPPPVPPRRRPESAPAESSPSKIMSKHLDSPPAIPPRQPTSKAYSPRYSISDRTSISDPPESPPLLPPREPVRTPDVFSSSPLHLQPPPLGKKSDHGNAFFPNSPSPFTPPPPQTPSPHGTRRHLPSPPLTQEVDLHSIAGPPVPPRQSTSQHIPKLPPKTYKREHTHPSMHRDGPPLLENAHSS
Outline: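 Compound, then GTP and SOS, were added to buffered Ras preloaded with BODIPY-GDP, and the fluorescence change from labeled GDP being exchanged for GTP was followed over time. Rates came from single-exponential fits, and EC50 from a four-parameter fit of mean rate against compound concentration.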

Son of Sevenless (SOS) = molecular target: T2, Son of Sevenless (SOS) (Homo sapiens, UniProt Q07889); test: Binding to SOS, fluorescence polarization anisotropy (FPA) displacement of FITC-conjugated probe; details: binding affinity calculated from IC50 of FITC-probe displacement, read-out: Binding affinities (binding affinity to SOS)
T2 sequence (Q07889 564-1049 limits assumed): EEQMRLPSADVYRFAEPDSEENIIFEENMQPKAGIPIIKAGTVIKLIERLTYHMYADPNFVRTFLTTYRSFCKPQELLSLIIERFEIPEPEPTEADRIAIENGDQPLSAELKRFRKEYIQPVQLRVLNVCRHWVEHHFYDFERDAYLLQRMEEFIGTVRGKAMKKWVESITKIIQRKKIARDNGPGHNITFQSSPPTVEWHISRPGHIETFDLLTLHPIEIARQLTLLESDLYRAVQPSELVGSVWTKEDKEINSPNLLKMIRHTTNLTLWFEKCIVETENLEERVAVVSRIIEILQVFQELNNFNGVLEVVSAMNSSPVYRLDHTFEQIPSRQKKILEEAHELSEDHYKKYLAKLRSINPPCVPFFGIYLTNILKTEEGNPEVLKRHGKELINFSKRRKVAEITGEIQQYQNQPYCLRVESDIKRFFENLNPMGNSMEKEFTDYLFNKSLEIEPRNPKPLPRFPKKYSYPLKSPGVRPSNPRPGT
Method: Compounds of the present invention were tested for their ability to the Ras guanine exchange factor (GEF) Son of Sevenless (SOS). Binding to SOS was measured using a Fluorescence polarization anisotropy (FPA) assay that assesses the ability of a test compound to displace a fluorescent FITC-conjugated compound. Briefly, the labeled probe compound is incubated with SOS in buffer. Changes in anisotropy indicative of displacement of the labeled probe for a test compound are assessed over a dose range of test compound. Data was analyzed by plotting fluorescence anisotropy values as a function of compound concentration. IC50 values were determined using a four-parameter dose-response (variable slope) and binding affinities were calculated from this IC50 value. This assay is performed in a method analogous to the assay disclosed in: Burns, M. C.; Sun, Q.; Daniels, R. N.; Camper, D. V.; Kennedy, J. P.; Phan, J.; Olejniczak, E. O.; Lee, T.; Waterson, A. G.; Rossanese, O. W.; Fesik, S. W. “Approach for targeting Ras with small molecules that activate SOS-mediated nucleotide exchange” Proc. Natl. Acad. Sci. 2014; 11(9): 3401-3406. PMCID: PMC3948241.

EC50 [1] [µM]	Ki (Son of Sevenless (SOS)) [µM]	Compound
5 to 30	1 to 5	C[C@@H](Nc1nc(Nc2ccc(F)c(Cl)c2)nc2c(CCN)cccc12)c1cccs1 [Example 91, (R)-8-(2-aminoethyl)-N^2-(3-chloro-4-fluorophenyl)-N^4-(1-(thiophen-2-yl)ethyl)quinazoline-2,4-diamine]
5 to 30	> 5	Cc1cc(F)cc(Nc2nc(N[C@H](C)c3cccs3)c3cccc(CCN)c3n2)c1 [Example 92, (R)-8-(2-aminoethyl)-N^2-(3-fluoro-5-methylphenyl)-N^4-(1-(thiophen-2-yl)ethyl)quinazoline-2,4-diamine]
5 to 30	< 1	C[C@@H](Nc1nc(NCC2CCCCC2)nc2c(CCN)cccc12)c1cccs1 [Example 93, (R)-8-(2-aminoethyl)-N^2-(cyclohexylmethyl)-N^4-(1-(thiophen-2-yl)ethyl)quinazoline-2,4-diamine]
1 to 5	1 to 5	C[C@@H](Nc1nc(NCc2cccc(Cl)c2F)nc2c(CCN)cccc12)c1cccs1 [Example 94, (R)-8-(2-aminoethyl)-N^2-(3-chloro-2-fluorobenzyl)-N^4-(1-(thiophen-2-yl)ethyl)quinazoline-2,4-diamine]
5 to 30	> 5	Cc1cc(F)cc(Nc2nc(N[C@H](C)c3cccs3)c3cccc(CN)c3n2)c1 [Example 95, (R)-8-(aminomethyl)-N^2-(3-fluoro-5-methylphenyl)-N^4-(1-(thiophen-2-yl)ethyl)quinazoline-2,4-diamine]
5 to 30	> 5	C[C@@H](Nc1nc(NCc2cccc(Cl)c2F)nc2c(CN)cccc12)c1cccs1 [Example 97, (R)-8-(aminomethyl)-N^2-(3-chloro-2-fluorobenzyl)-N^4-(1-(thiophen-2-yl)ethyl)quinazoline-2,4-diamine]
5 to 30	> 5	C[C@@H](Nc1nc(NCC2CCCCCC2)nc2c(C3=CCNCC3)cccc12)C1CC1 [Example 103, (R)—N^2-(cycloheptylmethyl)-N^4-(1-cyclopropylethyl)-8-(1,2,3,6-tetrahydropyridin-4-yl)quinazoline-2,4-diamine]
1 to 5	1 to 5	C[C@@H](Nc1nc(NCC2CCCC2)nc2c(C3=CCNCC3)cccc12)C1CC1 [Example 105, (R)—N^2-(cyclopentylmethyl)-N^4-(1-cyclopropylethyl)-8-(1,2,3,6-tetrahydropyridin-4-yl)quinazoline-2,4-diamine]
< 1	1 to 5	C[C@@H](Nc1nc(NCC2CCC2)nc2c(C3=CCNCC3)cccc12)C1CC1 [Example 106, (R)—N^2-(cyclobutylmethyl)-N^4-(1-cyclopropylethyl)-8-(1,2,3,6-tetrahydropyridin-4-yl)quinazoline-2,4-diamine]
1 to 5	1 to 5	Cc1cc(F)cc(Nc2nc(N[C@H](C)C3CC3)c3cccc(C4=CCNCC4)c3n2)c1 [Example 107, (R)—N^4-(1-cyclopropylethyl)-N^2-(3-fluoro-5-methylphenyl)-8-(1,2,3,6-tetrahydropyridin-4-yl)quinazoline-2,4-diamine]
1 to 5	1 to 5	Cc1cc(F)cc(Nc2nc(NC(C3CC3)C3CC3)c3cccc(C4=CCNCC4)c3n2)c1 [Example 108, N^4-(dicyclopropylmethyl)-N^2-(3-fluoro-5-methylphenyl)-8-(1,2,3,6-tetrahydropyridin-4-yl)quinazoline-2,4-diamine]
5 to 30	> 5	C[C@@H](Nc1nc(Nc2ccc(F)c(Cl)c2)nc2c(NCC3CNC3)cccc12)C1CC1 [Example 111, (R)—N^8-(azetidin-3-ylmethyl)-N^2-(3-chloro-4-fluorophenyl)-N^4-(1-cyclopropylethyl)quinazoline-2,4,8-triamine]
1 to 5	> 5	C[C@@H](Nc1nc(Nc2ccc(F)c(Cl)c2)nc2c(NC3CNC3)cccc12)C1CC1 [Example 112, (R)—N^8-(azetidin-3-yl)-N^2-(3-chloro-4-fluorophenyl)-N-(1-cyclopropylethyl)quinazoline-2,4,8-triamine]
1 to 5	1 to 5	C[C@@H](Nc1nc(Nc2ccc(F)c(Cl)c2)nc2c(CC3CNC3)cccc12)C1CC1 [Example 113, (R)-8-(azetidin-3-ylmethyl)-N^2-(3-chloro-4-fluorophenyl)-N^4-(1-cyclopropylethyl)quinazoline-2,4-diamine]
1 to 5	1 to 5	C[C@@H](Nc1nc(Nc2ccc(F)c(Cl)c2)nc2c(CC3CC(N)C3)cccc12)C1CC1 (stereo partly drawn) [Example 114, (R)-8-((3-aminocyclobutyl)methyl)-N^2-(3-chloro-4-fluorophenyl)-N^4-(1-cyclopropylethyl)quinazoline-2,4-diamine]
1 to 5	1 to 5	C=CC[C@@H](Nc1nc(Nc2ccc(F)c(Cl)c2)nc2c(C3=CCNCC3)cccc12)C1CC1 [Example 115, (R)—N^2-(3-chloro-4-fluorophenyl)-N^4-(1-cyclopropylbut-3-en-1-yl)-8-(1,2,3,6-tetrahydropyridin-4-yl)quinazoline-2,4-diamine]
1 to 5	< 1	C=CC[C@@H](Nc1nc(Nc2cc(F)cc(F)c2)nc2c(C3=CCNCC3)cccc12)C1CC1 [Example 116, (R)—N^4-(1-cyclopropylbut-3-en-1-yl)-N^2-(3,5-difluorophenyl)-8-(1,2,3,6-tetrahydropyridin-4-yl)quinazoline-2,4-diamine]
1 to 5	< 1	C=CC[C@@H](Nc1nc(NCC2CCCCC2)nc2c(C3=CCNCC3)cccc12)C1CC1 [Example 117, (R)—N^2-(cyclohexylmethyl)-N^4-(1-cyclopropylbut-3-en-1-yl)-8-(1,2,3,6-tetrahydropyridin-4-yl)quinazoline-2,4-diamine]
1 to 5	1 to 5	Cc1cc(F)cc(Nc2nc(N[C@H](C)C3CC3)c3cccc(CCN)c3n2)c1 [Example 118, (R)-8-(2-aminoethyl)-N^4-(1-cyclopropylethyl)-N^2-(3-fluoro-5-methylphenyl)quinazoline-2,4-diamine]
1 to 5	1 to 5	C[C@@H](Nc1nc(NCc2cccc(Cl)c2F)nc2c(CCN)cccc12)C1CC1 [Example 119, (R)-8-(2-aminoethyl)-N^2-(3-chloro-2-fluorobenzyl)-N^4-(1-cyclopropylethyl)quinazoline-2,4-diamine]
